For one assay, the system named is bfGnRHR-2. In words: Inhibition of GnRH-2-induced IP production, GH3 cells expressing bfGnRHR-2. Format: cell-based, bullfrog. As to the method: (§1) GH3 cell lines were obtained from the Cell Line Bank at the Cancer Research Center, Seoul National University College of Medicine, located in Seoul, Republic of Korea. The GH3 cell lines were infected with retroviruses comprising genes encoding bfGnRHR-1, bfGnRHR-2, and bfGnRHR-3 which are bullfrog GnRH receptors, and rat GnRHR, and cell lines expressing each of these receptors were obtained. The GH3 cells expressing bfGnRHR-1, bfGnRHR-2, bfGnRHR-3, and rat GnRHR were cultured on 12-well plates. After 24 hours, the cells were cultured again for 24 hours in a media containing no inositol, to which H^3-myoinositol was added. The resultant cells were washed with buffer A (140 mM NaCl, 20 mM HEPES, 4 mM KCl, 8 mM D-Glucose, 1 mM MgCl2, 1 mM CaCl2, 1 mg/ml BSA) and then cultured in buffer A containing 10 mM LiCl at 37°C. for 30 minutes. Thereafter, they were treated with GnRH having a suitable concentration, cultured at 37° C. for another 30 minutes, and then the media was eliminated. The cells were treated with 10 mM of ice-cold formic acid to terminate the reaction, and the cell extracts were mixed with Dowex anionic exchange resins. These resins were washed with distilled water, IP was extracted with 1 M ammonium formate/0.1 M formic acid, and cpm (count per minute) was determined.

In assay [1] the test system is bfGnRHR-3. Put plainly: Inhibition of GnRH-2-induced IP production, GH3 cells expressing bfGnRHR-3. In kind it is cell-based, bullfrog. As to the method:
as §1

The target in assay [2] is T1, rat GnRHR (Rattus norvegicus, UniProt P30969).
T1 construct: expressed in transfected cells; host or cells: GH3 cells, retrovirus-mediated infection
T1 sequence (P30969 1-327): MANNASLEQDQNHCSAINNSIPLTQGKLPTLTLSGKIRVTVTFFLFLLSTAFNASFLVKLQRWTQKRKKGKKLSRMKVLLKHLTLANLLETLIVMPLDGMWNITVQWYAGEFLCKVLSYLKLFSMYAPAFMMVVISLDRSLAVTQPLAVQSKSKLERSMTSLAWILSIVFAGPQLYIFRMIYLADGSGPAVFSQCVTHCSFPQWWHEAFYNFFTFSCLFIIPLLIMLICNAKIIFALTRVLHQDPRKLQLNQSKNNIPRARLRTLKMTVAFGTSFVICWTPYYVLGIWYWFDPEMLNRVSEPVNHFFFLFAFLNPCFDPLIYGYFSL
Put plainly: Inhibition of GnRH-induced IP production, GH3 cells expressing rat GnRHR. Format: cell-based. To be noted: rat GnRH receptors. On the procedure: as §1

In another assay the test system is Primate GnRH-2 receptor. In words: Inhibition of GnRH-2-induced c-fos-luc luciferase activity, cells expressing Primate GnRH-2 receptor. In kind it is cell-based, Primates. As to the method:
Complimentary DNA (cDNA) for a Primate GnRH-2 receptor was obtained from a CV-1 cell genome. […] Plasmids having Primate GnRH-2 receptors where transfected into CV-1 cells. To assay the activity of the receptor, c-fos-luc where a luciferase gene is fused with a c-fos promoter was co-transfected as a probe gene. After 48 hours from transfection, the cells were treated with GnRH-2 agonists and then the activity of luciferase was assayed (Seong et al., Endocrinology vol 144 2003, 454-466). In the same manner as in 2-3 above, Primate GnRH-2 receptors were co-transfected along with c-fos-luc reporter genes, and after 48 hours, GnRH-2 and GnRH-2 antagonists were treated thereinto at the same time and then the effect of GnRH-2 antagonists was observed. […] Log IC50 value by antagonists is an average value of experiments that were conducted independently three times. ND stands for “not detected” which means that there are no inhibitory functions.

Assay [3] concerns bfGnRHR-3. In words: Ligand-receptor binding assay, I125-GnRH-2 competition, membranes of GH3 cells expressing bfGnRHR-3. The conditions noted are these: log of IC50 (negative values); competition with I125-GnRH-2, 4° C., 16 hours. The arrangement: species or system bullfrog. On the procedure: To determine the binding affinity between GnRH and GnRH receptors, GnRH-2 was radiolabeled with I^125. The GH3 cells expressing bfGnRHR-1, bfGnRHR-2, bfGnRHR-3, and rat GnRHR constructed in Example 2-3 above were cultured on 100-mm dishes. After 48 hours, the cells were homogenized to obtain cellular membranes, which were then dissolved in binding buffer (40 mM Tris, pH 7.4, 2 mM MgCl2). 20 μg of membrane proteins were reacted with I^125-GnRH-2 at 4° C. for 16 hours. […] After the reaction was completed, 1^125-GnRH-2 bound to the receptors was filtered using a Brandel harvester, and cpm was measured using a γ-counter.
The GH3 cells expressing bfGnRHR-3 obtained from Example 6-1 above were treated with l^125GnRH-2 and GnRH-2 agonists and antagonists at various concentrations to determine the binding affinity of GnRH-2 agonists and antagonists toward the receptors.

Assay [4] addresses T1, rat GnRHR. Put plainly: Ligand-receptor binding assay, I125-GnRH-2 competition, membranes of GH3 cells expressing rat GnRHR. The conditions noted are these: log of IC50 (negative values); competition with I125-GnRH-2, 4° C., 16 hours; read-out: Binding affinity (log IC50 value) (converted). On the procedure:
To determine the binding affinity between GnRH and GnRH receptors, GnRH-2 was radiolabeled with I^125. […] After 48 hours, the cells were homogenized to obtain cellular membranes, which were then dissolved in binding buffer (40 mM Tris, pH 7.4, 2 mM MgCl2). 20 μg of membrane proteins were reacted with I^125-GnRH-2 at 4° C. for 16 hours. […] After the reaction was completed, 1^125-GnRH-2 bound to the receptors was filtered using a Brandel harvester, and cpm was measured using a γ-counter.

The mark [5] stands for this setting: log of IC50 (negative values), half-maximal inhibition of IP production induced by GnRH-2 (1 nM, 10 nM elsewhere in the source).
Where [6] appears, read: reduction of IP production induced by 1 nM GnRH-2.

Where a SMILES comes first, the peptide text is derived from it. [ ]: non-standard residue; d: D form. dPhe(4-Cl) = N[C@H](Cc1ccc(Cl)cc1)C(=O)O; d2Nal = N[C@H](Cc1ccc2ccccc2c1)C(=O)O; dCit = NC(=O)NCCC[C@@H](N)C(=O)O; d3Pal = N[C@H](Cc1cccnc1)C(=O)O

As a reminder, the IC50 is the concentration needed to halve the response being measured. As to `CC(=O)N[C@H](Cc1ccc2ccccc2c1)C(=O)N[C@H](Cc1ccc(Cl)cc1)C(=O)N[C@H](Cc1cccnc1)C(=O)N[C@@H](CO)C(=O)N[C@@H](Cc1ccc(O)cc1)C(=O)N[C@H](CCCNC(N)=O)C(=O)N[C@@H](Cc1c[nH]c2ccccc12)C(=O)N[C@@H](Cc1ccc(O)cc1)C(=O)N1CCC[C@H]1C(=O)N[C@H](C)C(N)=O` [Trptorelix-1, Ac-D2Nal-(4Cl)D-Phe-D-3Pal-Ser-Tyr-D-Cit-Trp-Tyr-Pro-DAlaNH2] (Ac-[d2Nal][dPhe(4-Cl)][d3Pal]SY[dCit]WYP[dA]-NH2), the “Log IC50” value is −8.10 ± 0.08 in the assay with bfGnRHR-2 (setting [5]); −8.49 ± 0.11 in the assay with bfGnRHR-3 [1] (setting [5]); −5.74 ± 0.10 in the assay on Primate GnRH-2 receptor (log of IC50 (negative values), reporter c-fos-luc, GnRH-2-induced luciferase, average of three experiments, ND = not detected, no inhibitory functions). In addition, the “fold more sensitive than Cetrorelix” value with bfGnRHR-2 (setting [6]) is given as 100 fold; in the assay on bfGnRHR-3 [1] (setting [6]) it was “about 1000 fold”. Besides, the “IP production by antagonist alone” value in the assay with bfGnRHR-2 (without GnRH-2) and in the assay on bfGnRHR-3 [1] (without GnRH-2) was “production of IP was not observed” each time. Also, the “fold lower effect than Cetrorelix” value on rat GnRHR [2] is on record as ~60 fold. Also, in the assay with Primate GnRH-2 receptor (GnRH-2 and antagonist treated at the same time), the “effect on luciferase activity induced by GnRH-2” value is given as “reduced in a concentration-dependent manner”. For the same molecule, the “Binding affinity (log IC50 value)” value in the assay with bfGnRHR-3 [3] was −11.73 ± 0.19. The IC50 on rat GnRHR [4] is 1.78 pM.

Values taken from patent US7285528B2, “Agonists and antagonists of gonadotropin-releasing hormone-2, and use thereof” (priority 2002, dated 2007).
